Laboratory results as given in patent US7745639B2, “Mitotic kinesin inhibitors” (Merck & Co., Inc., priority 2002, dated 2010).

These molecules were tested against T1, human KSP motor domain (KSP(367H)) (Homo sapiens, UniProt P52732) (assay: Kinesin ATPase in vitro assay). Conditions: not given.
T1 construct: were used to amplify the motor domain and the neck linker region; made in house; host or cells: E. coli BL21 (DE3), vector pRSETa
T1 sequence (P52732 18-359 limits assumed): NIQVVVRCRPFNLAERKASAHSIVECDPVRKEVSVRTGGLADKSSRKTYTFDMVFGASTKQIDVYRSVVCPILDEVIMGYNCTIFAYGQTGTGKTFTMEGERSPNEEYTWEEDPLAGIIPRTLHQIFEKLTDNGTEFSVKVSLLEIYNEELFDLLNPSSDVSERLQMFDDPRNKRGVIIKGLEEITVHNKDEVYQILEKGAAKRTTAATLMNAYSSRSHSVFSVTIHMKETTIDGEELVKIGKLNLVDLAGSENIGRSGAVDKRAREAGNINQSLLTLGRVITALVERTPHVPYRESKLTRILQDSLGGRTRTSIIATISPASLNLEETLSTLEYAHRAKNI
Type: biochemical
From the text: I. Kinesin ATPase In Vitro Assay
Cloning and Expression of Human Poly-Histidine Tagged KSP Motor Domain (KSP(367H))
Plasmids for the expression of the human KSP motor domain construct were cloned by PCR using a pBluescript full length human KSP construct (Blangy et al., Cell, vol.83, pp 1159-1169, 1995) as a template. The N-terminal primer 5′-[…] (SEQ.ID.NO.: 1) and the C-terminal primer 5′-[…] (SEQ.ID.NO.: 2) were used to amplify the motor domain and the neck linker region. The PCR products were digested with AseI and XhoI, ligated into the NdeI/XhoI digestion product of pRSETa (Invitrogen) and transformed into E. coli BL21 (DE3).
Cells were grown at 37° C. to an OD600 of 0.5. After cooling the culture to room temperature expression of KSP was induced with 100 μM IPTG and incubation was continued overnight. Cells were pelleted by centrifugation and washed once with ice-cold PBS. Pellets were flash-frozen and stored −80° C.
Cell pellets were thawed on ice and resuspended in lysis buffer (50 mM K-HEPES, pH 8.0, 250 mM KCl, 0.1% Tween, 10 mM imidazole, 0.5 mM Mg-ATP, 1 mM PMSF, 2 mM benzimidine, 1× complete protease inhibitor cocktail (Roche)). Cell suspensions were incubated with 1 mg/ml lysozyme and 5 mM β-mercaptoethanol on ice for 10 minutes, followed by sonication (3×30 sec). All subsequent procedures were performed at 4° C. Lysates were centrifuged at 40,000×g for 40 minutes. Supernatants were diluted and loaded onto an SP Sepharose column (Pharmacia, 5 ml cartridge) in buffer A (50 mM K-HEPES, pH 6.8, 1 mM MgCl2, 1 mM EGTA, […], 1 mM DTT) and eluted with a 0 to 750 mM KCl gradient in buffer A. Fractions containing KSP were pooled and incubated with Ni-NTA resin (Qiagen) for one hour. The resin was washed three times with buffer B (Lysis buffer minus PMSF and protease inhibitor cocktail), followed by three 15-minute incubations and washes with buffer B. Finally, the resin was incubated and washed for 15 minutes three times with buffer C (same as buffer B except for pH 6.0) and poured into a column. KSP was eluted with elution buffer (identical to buffer B except for 150 mM KCl and 250 mM imidazole). KSP-containing fractions were pooled, made 10% in sucrose, and stored at −80° C.
Microtubules are prepared from tubulin isolated from bovine brain. Purified tubulin (>97% MAP-free) at 1 mg/ml is polymerized at 37° C. in the presence of 10 μM paclitaxel, 1 mM DTT, 1 mM GTP in BRB80 buffer (80 mM K-PIPES, 1 mM EGTA, 1 mM MgCl2 at pH 6.8). The resulting microtubules are separated from non-polymerized tubulin by ultracentrifugation and removal of the supernatant. The pellet, containing the microtubules, is gently resuspended in 10 μM paclitaxel, 1 mM DTT, 50 μg/ml ampicillin, and 5 μg/ml chloramphenicol in BRB80.
The kinesin motor domain is incubated with microtubules, 1 mM ATP (1:1 MgCl2: Na-ATP), and compound at 23° C. in buffer containing 80 mM K-HEPES (pH 7.0), 1 mM EGTA, 1 mM DTT, 1 mM MgCl2, and 50 mM KCl. The reaction is terminated by a 2-10 fold dilution with a final buffer composition of 80 mM HEPES and 50 mM EDTA. Free phosphate from the ATP hydrolysis reaction is measured via a quinaldine red/ammonium molybdate assay by adding 150 μl of quench C buffer containing a 2:1 ratio of quench A:quench B. Quench A contains 0.1 mg/ml quinaldine red and 0.14% polyvinyl alcohol; quench B contains 12.3 mM ammonium molybdate tetrahydrate in 1.15 M sulfuric acid. The reaction is incubated for 10 minutes at 23° C., and the absorbance of the phospho-molybdate complex is measured at 540 nm.
With `CC(=O)N1N=C(c2ccccc2Cl)CC1c1cccc(O)c1` (stereo not drawn) [Compound 1-7, 3-[1-acetyl-3-(2-chlorophenyl)-4,5-dihydro-1H-pyrazol-5-yl]phenyl] the IC50 was no more than 50 µM.

Same assay, conditions: kinesin motor domain incubated with microtubules, 1 mM ATP and compound at 23° C.; free phosphate by quinaldine red/ammonium molybdate, 540 nm; read-out: IC50
`CC(=O)N1N=C(c2cc(F)ccc2F)CC1c1cccc(O)c1` (racemic) [Compound 4-5, 3-[1-acetyl-3-(2,5-difluorophenyl)-4,5-dihydro-1H-pyrazol-5-yl]phenyl] gave an IC50 of no more than 50 µM.
`CC(=O)N1N=C(c2cc(F)ccc2F)C(C)C1c1ccccc1` (single isomer, unassigned) [Compound 12-2, 1-acetyl-3-(2,5-difluorophenyl)-4-methyl-5-phenyl-4,5-dihydro-1H-pyrazole] gave an IC50 of no more than 50 µM.
With `CC(C)C(=O)N1N=C(c2ccccc2Cl)CC1c1cccc(O)c1` (stereo not drawn) [Compound 2-1, 3-[3-(2-chlorophenyl)-1-isobutyryl-4,5-dihydro-1H-pyrazol-5-yl]phenyl] the IC50 was no more than 50 µM.
`CC(=O)N1N=C(c2ccccc2Cl)CC1(C)c1cccc(O)c1` (stereo not drawn) [Compound 3-3, 3-[1-acetyl-3-(2-chlorophenyl)-5-methyl-4,5-dihydro-1H-pyrazol-5-yl]phenyl] was tested, and the IC50 was no more than 50 µM.
`O=C(N1CCNCC1)N1N=C(c2cc(F)ccc2F)CC1c1ccccc1` (stereo not drawn) [Compound 5-6, 1-{[3-(2,5-difluorophenyl)-5-phenyl-4,5-dihydro-1H-pyrazol-1-yl]carbonyl}piperazine] showed an IC50 of no more than 50 µM.
For `CN1N=C(c2cc(F)ccc2F)CC1(C)c1ccccc1` (stereo not drawn) [Compound 6-2, 3-(2,5-difluorophenyl)-1,5-dimethyl-5-phenyl-4,5-dihydro-1H-pyrazole], the IC50 was no more than 50 µM.
In the case of `NCCCC1(c2ccccc2)CC(c2cc(F)ccc2F)=NN1C(=O)N1CCOCC1` (stereo not drawn) [Compound 7-7, 3-[3-(2,5-difluorophenyl)-1-(morpholin-4-ylcarbonyl)-5-phenyl-4,5-dihydro-1H-pyrazol-5-yl]propan-1-amine], the IC50 is reported as no more than 50 µM.
In the case of `CS(=O)(=O)N1N=C(c2cc(F)ccc2F)CC1c1ccccc1` (stereo not drawn) [Compound 8-1, 3-(2,5-difluorophenyl)-1-(methylsulfonyl)-5-phenyl-4,5-dihydro-1H-pyrazole], the IC50 is reported as no more than 50 µM.
`CCNC(=O)N1N=C(c2cc(F)ccc2F)CC1(CCCN(C)C)c1ccccc1` (stereo not drawn) [Compound 9-2, 3-(2,5-difluorophenyl)-5-[3-(dimethylamino)propyl]-N-ethyl-5-phenyl-4,5-dihydro-1H-pyrazole-1-carboxamide] showed an IC50 of no more than 50 µM.
`CCNC(=O)N1N=C(c2cc(F)ccc2F)CC1(CCCNC(=O)c1ncc[nH]1)c1ccccc1` (stereo not drawn) [Compound 10-2, 3-(2,5-difluorophenyl)-N-ethyl-5-{3-[(1H-imidazol-2-ylcarbonyl)amino]propyl}-5-phenyl-4,5-dihydro-1H-pyrazole-1-carboxamide] showed an IC50 of no more than 50 µM.
In the case of `CN(C)C(=O)N1N=C(c2cc(F)ccc2F)CC1(CCC(N)c1ccccc1)c1ccccc1` (stereo not drawn) [Compound 11-2, 5-(3-amino-3-phenylpropyl)-3-(2,5-difluorophenyl)-N,N-dimethyl-5-phenyl-4,5 dihydro-1H-pyrazole-1-carboxamide], the IC50 is reported as no more than 50 µM.
